From patent publication US10213415B2, “Compounds as opioid receptor modulators” (JANSSEN PHARMACEUTICA NV, priority 2004, dated 2019)
Like-named read-outs stand apart in the source and are kept apart here.

Key:
[1] = target: T1, delta opioid receptor (NG108-15 cell membranes) (Mus musculus, UniProt P32300); assay: Delta Opioid Receptor Functional Assay: [35S]GTPγS Binding in NG108-15 Cell Membranes, Version 2; type: biochemical; details: NG108-15 cell membranes, version 2; for EC50: [35S]GTPγS, read-out: DOR GTP-binding Assay_v2_ EC50; for DOR GTP-binding Assay v2 (% I): % inhibition of agonist-stimulated GTPγS binding
T1 construct: NG108-15 cell membranes were purchased from Applied Cell Sciences (Rockville, Md.); host or cells: NG108-15 cells (membranes purchased)
Protocol: NG108-15 cell membranes were purchased from Applied Cell Sciences (Rockville, Md.). 8 mg/ml of membrane protein suspended in 10 mM TRIS-HC pH 7.2, 2 mM EDTA, 10% sucrose.
Membranes were maintained at 4-8° C. A portion (1 ml) of membranes was added into 10 ml cold binding assay buffer. The assay buffer contained 50 mM Tris, pH 7.6, 5 mM MgCl2, 100 mM NaCl, 1 mM DTT and 1 mM EGTA. The membrane suspension was homogenized with a Polytron for 2 times and centrifuged at 3000 rpm for 10 min. The supernent was then centrifuged at 18,000 rpm for 20 min. The pellet was saved in a tube and 10 ml assay buffer was added into the tube. The pellet and buffer were mixed with a Polytron.
The pellet membranes (75 μg/ml) were preincubated with SPA (10 mg/ml) at 25° C. for 45 min in the assay buffer. The SPA (5 mg/ml) coupled with membranes (37.5 μg/ml) was then incubated with 0.1 nM [^35S] GTPγS in the same Tris buffer containing 100 μM GDP in total volume of 200 μl. Increasing concentrations of receptor agonists were used to stimulate [^35S] GTPγS binding. The basal binding was tested in the absent agonists and no specific binding was tested in the present 10 μM unlabeled GTPγS. The data were analyzed on a Top counter.
[formula] % Inhibition=(% stimulation by 1 μM SNC80−% stimulation by 1 μM SNC80 in presence of test compound)×100/(% Stimulation by 1 μM SNC80−100) % of Basal=(stimulate−non specific)*100/(basal−non specific). EC50 values were calculated using GraphPad Prism.

[2] = target: T2, mu opioid receptor (CHO-hMOR cell membranes) (Homo sapiens, UniProt P35372); assay: Mu Opioid Receptor Functional Assay: [35S]GTPγS Binding in CHO-hMOR Cell Membranes, Versions 1 and 2; type: biochemical; details: for MOR GTP binding assay_v2 (% I): version 2, % inhibition of agonist-stimulated GTPγS binding; for EC50: version 2, read-out: MOR GTP binding assay v2 EC50; for MOR GTP binding assay_v1 (% I): version 1, % inhibition of agonist-stimulated GTPγS binding; for MOR GTP assay_v1 % of Basal: version 1, basal binding = 100%
T2 construct: purchased Receptor Biology, Inc. (Baltimore, Md.); host or cells: CHO cells (recombinant expression)
How it was run: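 CHO-hMOR membranes (10 μg/ml) on WGA SPA beads, preincubated 45 min at 25 °C, then incubated with 0.5 nM [35S]GTPγS in HEPES pH 7.6, 5 mM MgCl2, 100 mM NaCl, 1 mM DTT, 1 mM EDTA. Non-specific binding with 10 μM unlabeled GTPγS; agonist EC50 from concentration-response, antagonism as inhibition of 1 μM SNC80-stimulated binding.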

human mu opioid receptor = target: T3, human mu opioid receptor (Homo sapiens, UniProt P35372); assay: Human Mu Opioid Receptor Binding Assay (CHO membranes, 3H-Damgo); details: read-out: hKi μ
T3 construct: purchased Perkin Elmer RBHOMM400UA; host or cells: Chinese Hamster Ovary cells (recombinant expression)
How it was run: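 Membranes from CHO cells expressing human mu opioid receptor, 300 μg/mL, in 50 mM Tris pH 7.5, 5 mM MgCl2. Incubated with compound and ³H-Damgo (3.6 nM before mixing) for 2 h at room temperature, filtered, counted by scintillation. Nonspecific binding with 1 μM unlabelled Damgo.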

[3] = target: T4, human delta subtype 2 opioid receptor (Homo sapiens, UniProt P41143); assay: Human Delta Opioid Receptor Binding Assay (CHO membranes, 3H-Naltrindole); details: read-out: hKi δ
T4 construct: purchased Perkin Elmer RBHODM400UA; host or cells: Chinese Hamster Ovary cells (recombinant expression)
How it was run: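 Filtration binding on CHO-cell membranes expressing the human receptor, in 50 mM Tris pH 7.5 with 5 mM MgCl2, 30 min at room temperature; 3H-naltrindole diluted to 6 nM before mixing 1:1 with compound. Nonspecific binding defined with 1 μM unlabelled naltrindole; inhibition relative to no-inhibitor wells.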

delta opioid receptor = target: T5, delta opioid receptor (Rattus norvegicus, UniProt P33533); assay: Rat Brain Delta Opioid Receptor Binding Assay ([3H]DPDPE); details: rat forebrain membranes, margin of error 10-20%, read-out: r Ki δ
T5 construct: from tissue; host or cells: forebrain of male Wistar rats
Protocol: (§1) Male, Wistar rats (150-250 g, VAF, Charles River, Kingston, N.Y.) are killed by cervical dislocation, and their brains removed and placed immediately in ice cold Tris HCl buffer (50 mM, pH 7.4). The forebrains are separated from the remainder of the brain by a coronal transection, beginning dorsally at the colliculi and passing ventrally through the midbrain-pontine junction. After dissection, the forebrains are homogenized in Tris buffer in a Teflon® glass homogenizer. The homogenate is diluted to a concentration of 1 g of forebrain tissue per 80 mL Tris and centrifuged at 39,000×g for 10 min. The pellet is resuspended in the same volume of Tris buffer containing 5 mM MgCl2 with several brief pulses from a Polytron homogenizer. This particulate preparation is used for the delta opioid binding assays. Following incubation with the delta selective peptide ligand ˜4 nM [^3H]DPDPE at 25° C. for 2.5 h in a 96-well plate with total volume of 1 mL, the plate contents are filtered through Wallac filtermat B sheets on a Tomtec 96-well harvester. The filters are rinsed three times with 2 mL of 10 mM HEPES (pH 7.4), and dried in a microwave oven 2 min twice. To each sample area 2×50 μL of Betaplate Scint scintillation fluid (LKB) is added and analyzed on a LKB (Wallac) 1205 BetaPlate liquid scintillation counter.
(§2) The data are used to calculate either the % inhibition compared to control binding (when only a single concentration of test compound is evaluated) or a Ki value (when a range of concentrations is tested). % inhibition is calculated as: [(total dpm−test compound dpm)/(total dpm−nonspecific dpm)]*100. Kd and Ki values were calculated using GraphPad PRISM data analysis program.

mu opioid receptor = target: T6, mu opioid receptor (Rattus norvegicus, UniProt P33535); assay: Rat Brain Mu Opioid Receptor Binding Assay (and Version 2a, [3H]DAMGO); details: rat forebrain membranes, margin of error 10-20%, read-out: r Ki μ
T6 construct: from tissue; host or cells: forebrain of male Wistar rats
Protocol: as §1, with “mu-opioid” for “delta opioid”, “Following incubation with the delta selective peptide ligand ˜4 nM [^3H]DPDPE at 25° C. for 2.5 h in a 96-well plate with total volume of 1 mL, the plate contents are filtered through Wallac filtermat B sheets on a Tomtec 96-well harvester.” left out, “(pH7.4),” for “(pH 7.4),”
as §2, with “dpm-test” for “dpm−test”, “dpm-nonspecific” for “dpm−nonspecific”
Male, Wistar rats (150-250 g, VAF, Charles River, Kingston, N.Y.) were killed by cervical dislocation, and their brains removed and placed immediately in ice-cold Tris HCl buffer (50 mM, pH 7.4). The forebrains were separated from the remainder of the brain by a coronal transection, beginning dorsally at the colliculi and passing ventrally through the midbrain-pontine junction. After dissection, the forebrains were homogenized in Tris buffer in a Teflon®-glass homogenizer. The homogenate was diluted to a concentration of 1 g of forebrain tissue per 80 mL Tris and centrifuged at 39,000×g for 10 min. The pellet was resuspended in the same volume of Tris buffer containing 5 mM MgCl2 with several brief pulses from a Polytron homogenizer. This particulate preparation was used for the mu opioid binding assay. Following incubation with 0.8 nM of the mu selective ligand [^3H]DAMGO at 25° C. for 2.5 h in a 96-well plate with total 1 mL, the plate contents were filtered through Wallac filtermat B sheets on a Tomtec 96-well harvester. The filters were rinsed three times with 2 mL of 10 mM HEPES (pH 7.4), and dried in a microwave oven. To each sample area, Betaplate Scint scintillation fluid (LKB) was added and the resulting radioactivity quantified on a LKB (Wallac) 1205 BetaPlate liquid scintillation counter. Kd and Ki values were calculated using the GraphPad PRISM data analysis program.

[4] = system: novel environment-stressed mice; assay: In Vivo Assay-Stress-Induced Fecal Output (Fecal Output for 1 hr); parameters: species or system mouse; details: 30 mg/kg oral, 1 hr; for response vs control in vivo at 30 mg/kg: Mus musculus, po, 1 h
How it was run: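 Adult male Crl:CD-1(ICR) mice (˜30-35 g; at least 10 per dose group) were split into acclimated non-stressed controls, held individually for 16-18 hr in wire-mesh-bottom cages, and non-acclimated stressed groups. Mice were dosed intragastrically with vehicle or test compound in 0.5% methylcellulose, housed individually in novel cages over absorbent cardboard, and fecal pellets per mouse were counted hourly.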

T3 sequence (P35372 whole entry): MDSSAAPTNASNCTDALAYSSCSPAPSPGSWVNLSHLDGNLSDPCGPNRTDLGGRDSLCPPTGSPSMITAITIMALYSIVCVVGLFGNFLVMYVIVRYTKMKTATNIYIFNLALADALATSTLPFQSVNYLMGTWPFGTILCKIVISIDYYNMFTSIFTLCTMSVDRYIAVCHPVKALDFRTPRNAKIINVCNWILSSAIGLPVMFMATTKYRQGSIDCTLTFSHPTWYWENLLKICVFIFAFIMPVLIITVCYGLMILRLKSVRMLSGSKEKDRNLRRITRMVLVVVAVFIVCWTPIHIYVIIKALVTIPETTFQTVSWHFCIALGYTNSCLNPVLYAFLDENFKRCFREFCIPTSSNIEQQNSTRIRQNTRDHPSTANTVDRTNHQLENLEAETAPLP
T2 sequence (P35372 whole entry): as above
T6 sequence (P33535 whole entry): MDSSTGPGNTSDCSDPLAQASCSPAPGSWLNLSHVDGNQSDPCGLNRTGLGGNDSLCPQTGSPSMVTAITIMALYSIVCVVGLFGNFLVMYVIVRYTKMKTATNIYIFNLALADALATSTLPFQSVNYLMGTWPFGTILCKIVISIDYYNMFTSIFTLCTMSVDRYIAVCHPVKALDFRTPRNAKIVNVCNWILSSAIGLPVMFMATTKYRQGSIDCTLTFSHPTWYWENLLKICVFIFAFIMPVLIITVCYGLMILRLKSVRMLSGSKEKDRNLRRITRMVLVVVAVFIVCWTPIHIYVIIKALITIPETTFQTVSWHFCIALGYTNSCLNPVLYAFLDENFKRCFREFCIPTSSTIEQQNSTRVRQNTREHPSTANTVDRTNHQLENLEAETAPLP
T1 sequence (P32300 whole entry): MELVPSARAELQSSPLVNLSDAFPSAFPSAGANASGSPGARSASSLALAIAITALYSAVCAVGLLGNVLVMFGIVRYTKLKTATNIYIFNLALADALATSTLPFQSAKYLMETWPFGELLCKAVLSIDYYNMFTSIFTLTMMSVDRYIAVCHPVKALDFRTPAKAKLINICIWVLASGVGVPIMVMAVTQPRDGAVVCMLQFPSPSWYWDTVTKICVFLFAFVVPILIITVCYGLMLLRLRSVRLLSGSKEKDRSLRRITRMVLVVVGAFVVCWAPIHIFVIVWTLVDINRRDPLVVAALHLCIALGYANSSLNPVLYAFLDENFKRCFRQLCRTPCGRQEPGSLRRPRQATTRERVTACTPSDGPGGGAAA
T4 sequence (P41143 whole entry): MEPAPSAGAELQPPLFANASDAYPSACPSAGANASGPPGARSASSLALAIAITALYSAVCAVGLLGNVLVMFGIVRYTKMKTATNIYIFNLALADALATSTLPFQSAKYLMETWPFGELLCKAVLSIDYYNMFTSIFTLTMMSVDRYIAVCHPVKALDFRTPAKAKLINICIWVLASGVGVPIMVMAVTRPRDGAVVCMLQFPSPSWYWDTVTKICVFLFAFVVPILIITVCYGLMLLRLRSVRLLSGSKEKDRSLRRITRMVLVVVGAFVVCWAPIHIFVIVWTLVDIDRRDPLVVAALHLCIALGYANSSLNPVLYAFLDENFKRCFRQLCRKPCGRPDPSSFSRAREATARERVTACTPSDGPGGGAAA
T5 sequence (P33533 whole entry): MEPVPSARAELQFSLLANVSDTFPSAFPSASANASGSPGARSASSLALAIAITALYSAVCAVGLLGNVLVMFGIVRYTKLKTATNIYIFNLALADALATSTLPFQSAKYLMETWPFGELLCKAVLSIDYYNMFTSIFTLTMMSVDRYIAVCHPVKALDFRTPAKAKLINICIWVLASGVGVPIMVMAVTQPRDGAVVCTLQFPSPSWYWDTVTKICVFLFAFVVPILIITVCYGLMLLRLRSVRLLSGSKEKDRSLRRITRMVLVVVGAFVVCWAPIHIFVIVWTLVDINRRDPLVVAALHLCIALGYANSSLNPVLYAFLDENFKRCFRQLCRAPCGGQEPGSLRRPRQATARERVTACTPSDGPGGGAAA

Structure (SMILES) | EC50 [1] [nM] | DOR GTP-binding Assay v2 (% I) [1] [%] | MOR GTP binding assay_v2 (% I) [2] [%] | EC50 [2] [nM] | Ki (human mu opioid receptor) [nM] | Ki (delta opioid receptor) [nM] | Ki (mu opioid receptor) [nM] | further results
COC(=O)c1cc(CN(C(=O)[C@@H](N)Cc2c(C)cc(C(N)=O)cc2C)[C@@H](C)c2nc(-c3ccccc3)c[nH]2)ccn1 [Cpd 311] | 1.02 | 41.00 |  |  |  |  |  | 
COC(=O)c1cccc(CN(C(=O)[C@@H](N)Cc2c(C)cc(C(N)=O)cc2C)[C@@H](C)c2nc(-c3ccccc3)c[nH]2)n1 [Cpd 313] | 5.03 | 49 | 29.00 | 50.6 |  |  |  | 
COC(=O)c1ccc(CN(C(=O)[C@@H](N)Cc2c(C)cc(C(N)=O)cc2C)[C@@H](C)c2nc(-c3ccccc3)c[nH]2)cc1 [Cpd 51] | 27 | 66.04 |  |  | 2.7 |  |  | Ki [3]: 113 nM
COC(=O)c1ccc(CN(C(=O)[C@@H](N)Cc2c(C)cc(C(N)=O)cc2C)[C@@H](C)c2nc(-c3ccccc3)c[nH]2)nc1 [Cpd 252] | 32.1 | 66.00 | 24.00 | 4.15 |  |  |  | 
Cc1cc(O)cc(C)c1C[C@H](N)C(=O)N[C@@H](C)c1nc(-c2ccccc2)c[nH]1 [Cpd 209] |  |  |  |  | 23 | 708 | 17 | MOR GTP binding assay_v1 (% I) [2]: 10.00%; MOR GTP assay_v1 % of Basal [2]: 295.00%
COC(=O)c1ccc(CN(C(=O)[C@@H](N)Cc2c(C)cc(C(N)=O)cc2C)[C@@H](C)c2nc(-c3ccccc3)c[nH]2)cn1 [Cpd 255] | 13.1 | 54.00 | 33.00 | 3.48 |  |  |  | 
C[C@H](c1nc(-c2ccccc2)c[nH]1)N(C)C(=O)[C@@H](N)Cc1ccc(O)cc1 [Cpd 210] |  |  |  |  | 0.29 | 1860 | 420 | MOR GTP binding assay_v1 (% I) [2]: 10.00%; MOR GTP assay_v1 % of Basal [2]: 414.00%
COc1ccc(CN(C(=O)[C@@H](N)Cc2c(C)cc(C(N)=O)cc2C)[C@@H](C)c2nc(-c3cccc(C(=O)O)c3)c[nH]2)cc1OC [Cpd 20] | > 10000 | 78.74 |  |  | 63 |  |  | 
N[C@@H](Cc1ccc(O)cc1)C(=O)N(Cc1nc(-c2ccccc2)c[nH]1)CC1CC1 [Cpd 193] |  |  |  |  |  | 182 | 21.1 | Ki [3]: > 10000 nM; MOR GTP binding assay_v1 (% I) [2]: 54.00%; MOR GTP assay_v1 % of Basal [2]: 182.00%
N[C@@H](Cc1ccc(O)cc1)C(=O)N(Cc1nc(-c2ccccc2)c[nH]1)C1CCCCC1 [Cpd 191] |  |  |  |  |  | 727 | 189 | Ki [3]: > 10000 nM
Cc1cc(C(N)=O)cc(C)c1C[C@H](N)C(=O)N(Cc1ccc(C(=O)O)cn1)[C@@H](C)c1nc(-c2ccccc2)c[nH]1 [Cpd 253] | 1.35 | 52.00 | 28.00 | 251 |  |  |  | 
Cc1cc(C(N)=O)cc(C)c1C[C@H](N)C(=O)N(Cc1ccc(C(=O)O)nc1)[C@@H](C)c1nc(-c2ccccc2)c[nH]1 [Cpd 254] | 6.27 | 62.00 | 42.00 | 316 |  |  |  | 
CN(Cc1nc(-c2ccccc2)c[nH]1)C(=O)[C@@H](N)Cc1ccc(O)cc1 [Cpd 198] |  |  |  |  | 140 | 5180 | 152 | Ki [3]: > 10000 nM
Cc1cc(C(N)=O)cc(C)c1C[C@H](N)C(=O)N(Cc1nc(-c2ccccc2)c[nH]1)C(C)C [Cpd 178] |  |  |  |  |  | 104 | 0.6 | MOR GTP binding assay_v1 (% I) [2]: 10.00%; Fecal Output (# pellets) cpd ([4]; novel environment-stressed mice): 5.5 pellets; response vs control in vivo at 30 mg/kg ([4]; relative to acclimated control, read-out: Fecal Output cpd % control): 172%; response vs control in vivo at 30 mg/kg ([4]; relative to novel environment stress (NES) vehicle group, read-out: Fecal Output cpd % NES): 62.5%
